Test results as given in patent US20130053381A1, “2,4-DIOXO-1,4-DIHYDRO-2H-QUINAZOLIN-3-YL-SULFONAMIDE DERIVATIVES” (NOVARTIS AG, priority 2010, published 2013).

tested on: OF1 mice; experiment: Maximal electroshock test (MES Test); type: in vivo; settings: Mus musculus, po; 50 mg/kg, p.o., pre-treatment time −1 h; read-out: %-Protection
Outline: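 Readout: fraction of five OF1 mice protected, meaning seizure duration 3 s or less, after a 50 Hz, 18 mA, 0.2 s temporal-electrode shock. Dosing was oral, usually 50 mg/kg, one hour beforehand; ED50 values were derived and post-shock blood taken for exposure.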

| Compound | responders at 50 mg/kg |
| --- | --- |
| CCCCOC(=O)N(n1c(=O)[nH]c2cc(C(F)(F)F)c(C(CC)OC)cc2c1=O)S(C)(=O)=O (stereo not drawn) [Example 11.11, Methanesulfonyl-[6-(1-methoxy-propyl)-2,4-dioxo-7-trifluoromethyl-1,4-dihydro-2H-quinazolin-3-yl]-carbamic acid butyl ester] | 60% |
| CCCCCOC(=O)N(n1c(=O)[nH]c2cc(C(F)(F)F)c(C(CC)OC)cc2c1=O)S(C)(=O)=O (stereo not drawn) [Example 11.12, Methanesulfonyl-[6-(1-methoxy-propyl)-2,4-dioxo-7-trifluoromethyl-1,4-dihydro-2H-quinazolin-3-yl]-carbamic acid pentyl ester] | 20% |
| CCCCCCOC(=O)N(n1c(=O)[nH]c2cc(C(F)(F)F)c(C(CC)OC)cc2c1=O)S(C)(=O)=O (stereo not drawn) [Example 11.13, Methanesulfonyl-[6-(1-methoxy-propyl)-2,4-dioxo-7-trifluoromethyl-1,4-dihydro-2H-quinazolin-3-yl]-carbamic acid hexyl ester] | 60% |
| CCC(OC)c1cc2c(=O)n(N(C(=O)OC(C)C)S(C)(=O)=O)c(=O)[nH]c2cc1C(F)(F)F (stereo not drawn) [Example 11.14, Methanesulfonyl-[6-(1-methoxy-propyl)-2,4-dioxo-7-trifluoromethyl-1,4-dihydro-2H-quinazolin-3-yl]-carbamic acid isopropyl ester] | 60% |
| CCCCC(=O)N(n1c(=O)[nH]c2cc(C(F)(F)F)c(C(CC)OC)cc2c1=O)S(C)(=O)=O (stereo not drawn) [Example 11.15, N-[6-(1-methoxy-propyl)-2,4-dioxo-7-trifluoromethyl-1,4-dihydro-2H-quinazolin-3-yl]-N-pentanoyl-methanesulfonamide] | 100% |
| CCCCCC(=O)N(n1c(=O)[nH]c2cc(C(F)(F)F)c(C(O)CC)cc2c1=O)S(C)(=O)=O (stereo not drawn) [Example 12.01, N-Hexanoyl-N-[6-(1-hydroxy-propyl)-2,4-dioxo-7-trifluoromethyl-1,4-dihydro-2H-quinazolin-3-yl]-methanesulfonamide] | 40% |
| CCC(O)c1cc2c(=O)n(N(C(=O)OCCOC)S(C)(=O)=O)c(=O)[nH]c2cc1C(F)(F)F (stereo not drawn) [Example 12.02, Methanesulfonyl-[6-(1-hydroxy-propyl)-2,4-dioxo-7-trifluoromethyl-1,4-dihydro-2H-quinazolin-3-yl]-carbamic acid 2-methoxy-ethyl ester] | 20% |
| CCCC(=O)N(n1c(=O)[nH]c2cc(C(F)(F)F)c(C(O)CC)cc2c1=O)S(C)(=O)=O (stereo not drawn) [Example 12.03, N-Butyryl-N-[6-(1-hydroxy-propyl)-2,4-dioxo-7-trifluoromethyl-1,4-dihydro-2H-quinazolin-3-yl]-methanesulfonamide] | 40% |
| CCC(O)c1cc2c(=O)n(N(C(=O)C(C)C)S(C)(=O)=O)c(=O)[nH]c2cc1C(F)(F)F (stereo not drawn) [Example 12.04, N-[6-(1-Hydroxy-propyl)-2,4-dioxo-7-trifluoromethyl-1,4-dihydro-2H-quinazolin-3-yl]-N-isobutyryl-methanesulfonamide] | 40% |
| CCCCC(=O)N(n1c(=O)[nH]c2cc(C(F)(F)F)c(C(O)CC)cc2c1=O)S(C)(=O)=O (stereo not drawn) [Example 12.05, N-[6-(1-Hydroxy-propyl)-2,4-dioxo-7-trifluoromethyl-1,4-dihydro-2H-quinazolin-3-yl]-N-pentanoyl-methanesulfonamide] | 40% |
| CCc1cc2[nH]c(=O)n(N(C(=O)OCC(C)C)S(C)(=O)=O)c(=O)c2cc1-c1ccnn1CC [Example 13.01, Methanesulfonyl-[7-ethyl-6-(2-ethyl-2H-pyrazol-3-yl)-2,4-dioxo-1,4-dihydro-2H-quinazolin-3-yl]carbamic acid isobutyl ester] | 20% |
| CCCCCC(=O)N(n1c(=O)[nH]c2cc(CC)c(-c3ccnn3CC)cc2c1=O)S(C)(=O)=O [Example 13.02, N-[7-Ethyl-6-(2-ethyl-2H-pyrazol-3-yl)-2,4-dioxo-1,4-dihydro-2H-quinazolin-3-yl]-N-hexanoyl-methanesulfonamide] | 20% |
| CCC(=O)N(n1c(=O)[nH]c2cc(CC)c(-c3ccnn3CC)cc2c1=O)S(C)(=O)=O [Example 13.03, N-[7-Ethyl-6-(2-ethyl-2H-pyrazol-3-yl)-2,4-dioxo-1,4-dihydro-2H-quinazolin-3-yl]-N-propionyl-methanesulfonamide] | 20% |
| CCn1nccc1-c1cc2c(=O)n(NS(C)(=O)=O)c(=O)[nH]c2cc1C(F)F [Example 14.0, N-[7-Difluoromethyl-6-(2-ethyl-2H-pyrazol-3-yl)-2,4-dioxo-1,4-dihydro-2H-quinazolin-3-yl]-methanesulfonamide] | 0% |
| CCn1nccc1-c1cc2c(=O)n(N(C(=O)COC(C)=O)S(C)(=O)=O)c(=O)[nH]c2cc1C(F)F [Example 14.01, Acetic acid 2-{[7-difluoromethyl-6-(2-ethyl-2H-pyrazol-3-yl)-2,4-dioxo-1,4-dihydro-2H-quinazolin-3-yl]-methanesulfonyl-amino}-2-oxo-ethyl ester] | 20% |
| CCn1nccc1-c1cc2c(=O)n(NS(C)(=O)=O)c(=O)[nH]c2cc1C(F)(F)F [Example 15.0, N-[6-(2-Ethyl-2H-pyrazol-3-yl)-2,4-dioxo-7-trifluoromethyl-1,4-dihydro-2H-quinazolin-3-yl]-methanesulfonamide] | 0% |
| CCn1nccc1-c1cc2c(=O)n(N(C(=O)OC)S(C)(=O)=O)c(=O)[nH]c2cc1C(F)(F)F [Example 15.01, [6-(2-Ethyl-2H-pyrazol-3-yl)-2,4-dioxo-7-trifluoromethyl-1,4-dihydro-2H-quinazolin-3-yl]-methanesulfonyl-carbamic acid methyl ester] | 40% |
| CCC(=O)N(n1c(=O)[nH]c2cc(C(F)(F)F)c(-c3ccnn3CC)cc2c1=O)S(C)(=O)=O [Example 15.02, N-[6-(2-Ethyl-2H-pyrazol-3-yl)-2,4-dioxo-7-trifluoromethyl-1,4-dihydro-2H-quinazolin-3-yl]-N-propionyl-methanesulfonamide] | 20% |
| CCCCOC(=O)N(n1c(=O)[nH]c2cc(C(F)(F)F)c(-c3ccnn3CC)cc2c1=O)S(C)(=O)=O [Example 15.03, [6-(2-Ethyl-2H-pyrazol-3-yl)-2,4-dioxo-7-trifluoromethyl-1,4-dihydro-2H-quinazolin-3-yl]-methanesulfonyl-carbamic acid butyl ester] | 20% |
| CCn1nccc1-c1cc2c(=O)n(N(C(=O)C(C)(C)C)S(C)(=O)=O)c(=O)[nH]c2cc1C(F)(F)F [Example 15.04, N-(2,2-Dimethyl-propionyl)-N-[6-(2-ethyl-2H-pyrazol-3-yl)-2,4-dioxo-7-trifluoromethyl-1,4-dihydro-2H-quinazolin-3-yl]-methanesulfonamide] | 20% |

same assay, conditions: Mus musculus; dose of up to 50 mg/kg, p.o., 1 hour prior to induction of convulsions; read-out: %-Protection

| Compound | responders at 50 mg/kg |
| --- | --- |
| CCc1cc2[nH]c(=O)n(N(C(=O)OCCOC)S(C)(=O)=O)c(=O)c2cc1-c1ccnn1CC [Methanesulfonyl-[7-ethyl-6-(2-ethyl-2H-pyrazol-3-yl)-2,4-dioxo-1,4-dihydro-2H-quinazolin-3-yl]carbamic acid 2-methoxy-ethyl ester] | 0% |
| CCOC(=O)N(n1c(=O)[nH]c2cc(CC)c(-c3ccnn3CC)cc2c1=O)S(C)(=O)=O [Methanesulfonyl-[7-ethyl-6-(2-ethyl-2H-pyrazol-3-yl)-2,4-dioxo-1,4-dihydro-2H-quinazolin-3-yl]carbamic acid ethyl ester] | 0% |
| CCc1cc2[nH]c(=O)n(N(C(=O)OC)S(C)(=O)=O)c(=O)c2cc1-c1ccnn1CC [Methanesulfonyl-[7-ethyl-6-(2-ethyl-2H-pyrazol-3-yl)-2,4-dioxo-1,4-dihydro-2H-quinazolin-3-yl]carbamic acid methyl ester] | 0% |
| CCCOC(=O)N(n1c(=O)[nH]c2cc(CC)c(-c3ccnn3CC)cc2c1=O)S(C)(=O)=O [Methanesulfonyl-[7-ethyl-6-(2-ethyl-2H-pyrazol-3-yl)-2,4-dioxo-1,4-dihydro-2H-quinazolin-3-yl]carbamic acid propyl ester] | 0% |
| CCCCCCOC(=O)N(n1c(=O)[nH]c2cc(CC)c(-c3ccnn3C)cc2c1=O)S(C)(=O)=O [Methanesulfonyl-[7-ethyl-6-(2-methyl-2H-pyrazol-3-yl)-2,4-dioxo-1,4-dihydro-2H-quinazolin-3-yl]carbamic acid hexyl ester] | 0% |
| CCCCCCOC(=O)N(n1c(=O)[nH]c2cc(C(F)(F)F)c([C@H]3CCCO3)cc2c1=O)S(C)(=O)=O [Methanesulfonyl-[(R)-2,4-Dioxo-6-tetrahydro-furan-2-yl-7-trifluoromethyl-1,4-dihydro-2H-quinazolin-3-yl]carbamic acid hexyl ester] | 0% |
| CC(C)OC(=O)N(n1c(=O)[nH]c2cc(C(F)(F)F)c([C@H]3CCCO3)cc2c1=O)S(C)(=O)=O [Methanesulfonyl-[(R)-2,4-Dioxo-6-tetrahydro-furan-2-yl-7-trifluoromethyl-1,4-dihydro-2H-quinazolin-3-yl]carbamic acid isopropyl ester] | 0% |
| CCCCCOC(=O)N(n1c(=O)[nH]c2cc(C(F)(F)F)c([C@H]3CCCO3)cc2c1=O)S(C)(=O)=O [Methanesulfonyl-[(R)-2,4-Dioxo-6-tetrahydro-furan-2-yl-7-trifluoromethyl-1,4-dihydro-2H-quinazolin-3-yl]carbamic acid pentyl ester] | 0% |
| CCCOC(=O)N(n1c(=O)[nH]c2cc(C(F)(F)F)c([C@H]3CCCO3)cc2c1=O)S(C)(=O)=O [Methanesulfonyl-[(R)-2,4-Dioxo-6-tetrahydro-furan-2-yl-7-trifluoromethyl-1,4-dihydro-2H-quinazolin-3-yl]carbamic acid propyl ester] | 0% |
| CCn1nccc1-c1cc2c(=O)n(N(C(C)=O)S(C)(=O)=O)c(=O)[nH]c2cc1C(F)(F)F [N-Acetyl-N-[6-(2-ethyl-2H-pyrazol-3-yl)-2,4-dioxo-7-trifluoromethyl-1,4-dihydro-2H-quinazolin-3-yl]-methanesulfonamide] | 0% |
